Columns and labels:
AHR [1] = biological target: T1, AHR (Homo sapiens, UniProt P35869); assay: In vitro assay 1: antagonism in human cell line (transactivation assay, U87 cells prestimulated with kynurenic acid, DRE firefly luciferase reporter); type: cell-based; set-up: host or cells: U87 glioblastoma cells, stably transfected with DRE firefly luciferase and renilla reporter constructs; conditions: 150 uM kynurenic acid, 20 hours, read-out: Assay 1: AHR-luc Hum Antagonism IC50
T1 sequence (P35869 11-848): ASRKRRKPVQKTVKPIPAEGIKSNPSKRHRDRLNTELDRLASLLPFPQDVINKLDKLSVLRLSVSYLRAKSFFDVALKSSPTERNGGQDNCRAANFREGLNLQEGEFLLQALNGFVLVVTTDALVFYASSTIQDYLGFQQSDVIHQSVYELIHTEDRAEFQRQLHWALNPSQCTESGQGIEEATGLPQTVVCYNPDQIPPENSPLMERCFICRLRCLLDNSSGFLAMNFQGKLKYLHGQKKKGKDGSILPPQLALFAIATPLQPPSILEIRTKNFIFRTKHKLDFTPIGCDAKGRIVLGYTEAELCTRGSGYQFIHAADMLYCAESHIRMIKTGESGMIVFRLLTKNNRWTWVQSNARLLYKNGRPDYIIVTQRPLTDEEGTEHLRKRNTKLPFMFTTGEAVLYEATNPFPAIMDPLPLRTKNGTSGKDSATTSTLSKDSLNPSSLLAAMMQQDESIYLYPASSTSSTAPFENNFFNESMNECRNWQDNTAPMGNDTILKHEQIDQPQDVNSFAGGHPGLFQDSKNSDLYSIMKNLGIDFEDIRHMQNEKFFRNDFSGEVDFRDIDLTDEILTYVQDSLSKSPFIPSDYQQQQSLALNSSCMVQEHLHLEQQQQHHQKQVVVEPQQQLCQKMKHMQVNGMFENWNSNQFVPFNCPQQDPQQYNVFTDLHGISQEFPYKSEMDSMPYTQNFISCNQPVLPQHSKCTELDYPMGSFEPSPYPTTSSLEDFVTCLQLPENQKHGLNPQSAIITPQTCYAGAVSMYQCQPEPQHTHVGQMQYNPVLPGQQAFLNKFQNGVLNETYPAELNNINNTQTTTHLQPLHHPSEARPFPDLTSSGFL
Outline: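 U87 glioblastoma cells with endogenous AHR, stably carrying a DRE-driven firefly luciferase reporter and a constitutive renilla reporter. Cells prestimulated with the AHR agonist kynurenic acid before compound addition; data normalized to positive and negative controls.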

AHR [2] = biological target: T1, AHR; assay: In vitro assay 2: agonism in human cell line (transactivation assay, U87 cells, DRE firefly luciferase reporter); type: cell-based; set-up: host or cells: U87 glioblastoma cells, stably transfected with DRE firefly luciferase and renilla reporter constructs; conditions: no kynurenic acid, 20 hours, read-out: Assay 2: AHR-luc Hum Agonism IC50
Outline: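 U87 glioblastoma cells with endogenous AHR, stably carrying DRE-driven firefly luciferase and constitutive renilla reporters. 300 uM kynurenic acid served as positive activation control; data normalized to positive and negative controls.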

Row | Compound | IC50 (AHR [1]) | IC50 (AHR [2])
1 | COC[C@@H](CO)NC(=O)c1cc(-c2ccc(Cl)cc2)nn(-c2cncc(F)c2)c1=O [Example 85, 6-(4-Chlorophenyl)-2-(5-fluoropyridin-3-yl)-N-[(2R)-1-hydroxy-3-methoxypropan-2-yl]-3-oxo-2,3-dihydropyridazine-4-carboxamide] | 36 nM | > 20000 nM
2 | COC[C@H](CO)NC(=O)c1cc(-c2ccc(Cl)cc2)nn(-c2cncc(F)c2)c1=O [Example 86, 6-(4-Chlorophenyl)-2-(5-fluoropyridin-3-yl)-N-[(2S)-1-hydroxy-3-methoxypropan-2-yl]-3-oxo-2,3-dihydropyridazine-4-carboxamide] | 55.9 nM | > 20000 nM
3 | O=C(N[C@@H](CO)C(F)(F)F)c1cc(-c2ccc(Cl)cc2)nn(-c2cccnc2)c1=O [Example 95, (−)-6-(4-Chlorophenyl)-3-oxo-2-(pyridin-3-yl)-N-[(2S)-1,1,1-trifluoro-3-hydroxypropan-2-yl]-2,3-dihydropyridazine-4-carboxamide] | 62.3 nM | > 20000 nM
4 | O=C(NC[C@@H](O)CO)c1cc(-c2ccc(Cl)cc2)nn(-c2cncc(F)c2)c1=O [Example 98, 6-(4-Chlorophenyl)-N-[(2R)-2,3-dihydroxypropyl]-2-(5-fluoropyridin-3-yl)-3-oxo-2,3-dihydropyridazine-4-carboxamide] | 251 nM | > 20000 nM
5 | O=C(NC[C@H](O)CO)c1cc(-c2ccc(Cl)cc2)nn(-c2cncc(F)c2)c1=O [Example 99, 6-(4-Chlorophenyl)-N-[(2S)-2,3-dihydroxypropyl]-2-(5-fluoropyridin-3-yl)-3-oxo-2,3-dihydropyridazine-4-carboxamide] | 129 nM | > 20000 nM
6 | O=C(N[C@H](CO)C(F)(F)F)c1cc(-c2ccc(Cl)cc2)nn(-c2cncc(F)c2)c1=O [Example 100, 6-(4-Chlorophenyl)-2-(5-fluoropyridin-3-yl)-3-oxo-N-[(2R)-1,1,1-trifluoro-3-hydroxypropan-2-yl]-2,3-dihydropyridazine-4-carboxamide] | 12.7 nM | > 20000 nM
7 | COC[C@H](CO)NC(=O)c1cc(-c2ccc(C(F)(F)F)cc2)nn(-c2cccnc2)c1=O [Example 111, N-[(2S)-1-Hydroxy-3-methoxypropan-2-yl]-3-oxo-2-(pyridin-3-yl)-6-[4-(trifluoromethyl)phenyl]-2,3-dihydropyridazine-4-carboxamide] | 26.5 nM | > 20000 nM
8 | O=C(NC[C@H](O)CO)c1cc(-c2ccc(C(F)(F)F)cc2)nn(-c2cccnc2)c1=O [Example 114, N-[(2S)-2,3-Dihydroxypropyl]-3-oxo-2-(pyridin-3-yl)-6-[4-(trifluoromethyl)phenyl]-2,3-dihydropyridazine-4-carboxamide] | 85.5 nM | > 20000 nM
9 | O=C(NC(CO)CO)c1cc(-c2ccc(C(F)(F)F)cc2)nn(-c2cccnc2)c1=O [Example 116, N-(1,3-Dihydroxypropan-2-yl)-3-oxo-2-(pyridin-3-yl)-6-[4-(trifluoromethyl)phenyl]-2,3-dihydropyridazine-4-carboxamide] | 115 nM | > 20000 nM
10 | C[C@@H](CO)NC(=O)c1cc(-c2ccc(Cl)cc2)nn(-c2cncnc2)c1=O [Example 120, 6-(4-Chlorophenyl)-N-[(2S)-1-hydroxypropan-2-yl]-3-oxo-2-(pyrimidin-5-yl)-2,3-dihydropyridazine-4-carboxamide] | 67.9 nM | > 20000 nM
11 | CC(C)(O)C(NC(=O)c1cc(-c2ccc(Cl)cc2)nn(-c2cccnc2)c1=O)C(F)(F)F (stereo not drawn) [Example 121, 6-(4-Chlorophenyl)-3-oxo-2-(pyridin-3-yl)-N-(1,1,1-trifluoro-3-hydroxy-3-methylbutan-2-yl)-2,3-dihydropyridazine-4-carboxamide] | 2.54 nM | > 20000 nM
12 | O=C(N[C@H]1CCCC[C@H]1O)c1cc(-c2ccc(Cl)cc2)nn(-c2cncc(F)c2)c1=O [Example 124, 6-(4-Chlorophenyl)-2-(5-fluoropyridin-3-yl)-N-[(1S,2R)-2-hydroxycyclohexyl]-3-oxo-2,3-dihydropyridazine-4-carboxamide] | 3.64 nM | > 20000 nM
13 | O=C(N[C@H](CO)C(F)(F)F)c1cc(-c2ccc(C(F)F)cc2)nn(-c2cccnc2)c1=O [Example 127, 6-[4-(Difluoromethyl)phenyl]-3-oxo-2-(pyridin-3-yl)-N-[(2R)-1,1,1-trifluoro-3-hydroxypropan-2-yl]-2,3-dihydropyridazine-4-carboxamide] | 4.17 nM | > 20000 nM
14 | O=C(NC[C@H](O)C(F)(F)F)c1cc(-c2ccc(Cl)cc2)nn(-c2cncc(F)c2)c1=O [Example 128, 6-(4-Chlorophenyl)-2-(5-fluoropyridin-3-yl)-3-oxo-N-[(2S)-3,3,3-trifluoro-2-hydroxypropyl]-2,3-dihydropyridazine-4-carboxamide] | 5.05 nM | > 20000 nM
15 | O=C(N[C@H]1CCC[C@H]1O)c1cc(-c2ccc(Cl)cc2)nn(-c2cncc(F)c2)c1=O [Example 129, 6-(4-Chlorophenyl)-2-(5-fluoropyridin-3-yl)-N-[(1S,2R)-2-hydroxycyclopentyl]-3-oxo-2,3-dihydropyridazine-4-carboxamide] | 5.53 nM | > 20000 nM
16 | O=C(N[C@H]1CCC[C@@H]1O)c1cc(-c2ccc(OC(F)(F)F)cc2)nn(-c2cccnc2)c1=O [Example 132, N-[(1S,2S)-2-Hydroxycyclopentyl]-3-oxo-2-(pyridin-3-yl)-6-[4-(trifluoromethoxy)phenyl]-2,3-dihydropyridazine-4-carboxamide] | 6.88 nM | > 20000 nM
17 | CC(C)(O)C(NC(=O)c1cc(-c2ccc(OC(F)(F)F)cc2)nn(-c2cccnc2)c1=O)C(F)(F)F (stereo not drawn) [Example 135, 3-Oxo-2-(pyridin-3-yl)-N-[1,1,1-trifluoro-3-hydroxy-3-methylbutan-2-yl]-6-[4-(trifluoromethoxy)phenyl]-2,3-dihydropyridazine-4-carboxamide] | 7.91 nM | > 20000 nM
18 | O=C(NCC(O)C(F)(F)F)c1cc(-c2ccc(OC(F)(F)F)cc2)nn(-c2cccnc2)c1=O (stereo not drawn) [Example 146, 3-Oxo-2-(pyridin-3-yl)-N-[3,3,3-trifluoro-2-hydroxypropyl]-6-[4-(trifluoromethoxy)phenyl]-2,3-dihydropyridazine-4-carboxamide] | 10.3 nM | > 20000 nM
19 | O=C(N[C@H](CO)C1CC1)c1cc(-c2ccc(C(F)F)cc2)nn(-c2cccnc2)c1=O [Example 150, N-[(1S)-1-Cyclopropyl-2-hydroxyethyl]-6-[4-(difluoromethyl)phenyl]-3-oxo-2-(pyridin-3-yl)-2,3-dihydropyridazine-4-carboxamide] | 19.9 nM | > 20000 nM
20 | C[C@@H](CO)NC(=O)c1cc(-c2ccc(C(F)F)cc2)nn(-c2cccnc2)c1=O [Example 151, 6-[4-(Difluoromethyl)phenyl]-N-[(2S)-1-hydroxypropan-2-yl]-3-oxo-2-(pyridin-3-yl)-2,3-dihydropyridazine-4-carboxamide] | 21.1 nM | > 20000 nM
21 | C[C@@H](CO)NC(=O)c1cc(-c2ccc(Cl)cc2F)nn(-c2cccnc2)c1=O [Example 163, 6-(4-Chloro-2-fluorophenyl)-N-[(2S)-1-hydroxypropan-2-yl]-3-oxo-2-(pyridin-3-yl)-2,3-dihydropyridazine-4-carboxamide] | 134 nM | > 20000 nM
22 | O=C(N[C@H]1CCCC[C@H]1O)c1cc(-c2ccc(Cl)cc2)nn(-c2ccnnc2)c1=O [Example 164, 3-(4-Chlorophenyl)-N-[(1S,2R)-2-hydroxycyclohexyl]-6-oxo-6H-1,4′-bipyridazine-5-carboxamide] | 157 nM | > 20000 nM
23 | O=C(N[C@H]1CCC[C@@H]1O)c1cc(-c2ccc(C(F)F)nc2)nn(-c2cccnc2)c1=O [Example 165, 6-[6-(Difluoromethyl)pyridin-3-yl]-N-[(1S,2S)-2-hydroxycyclopentyl]-3-oxo-2-(pyridin-3-yl)-2,3-dihydropyridazine-4-carboxamide] | 209 nM | > 20000 nM
24 | O=C(N[C@H]1CCC[C@H]1O)c1cc(-c2ccc(Cl)cc2)nn(-c2ccnnc2)c1=O [Example 167, 3-(4-Chlorophenyl)-N-[(1S,2R)-2-hydroxycyclopentyl]-6-oxo-6H-1,4′-bipyridazine-5-carboxamide] | 239 nM | > 20000 nM

— patent US12522594B2, “2-heteroaryl-3-oxo-2,3-dihydropyridazine-4-carboxamides for the treatment of cancer” (Deutsches Krebsforschungszentrum, priority 2017, dated 2026)
